Key:
Brain CCK Receptor = biological target: T1, Brain CCK Receptor (Cavia porcellus, UniProt H0VZC5); assay: Brain Cholecystokinin Receptor Binding Assay (cerebral cortex); settings: guinea pig cerebral cortex, 125I-CCK-8, 25° C., 2 hours
T1 construct: The cerebral cortex was dissected and used as a receptor source; from tissue; host or cells: cerebral cortex membranes of male Hartley guinea pigs
T1 sequence (H0VZC5 1-426): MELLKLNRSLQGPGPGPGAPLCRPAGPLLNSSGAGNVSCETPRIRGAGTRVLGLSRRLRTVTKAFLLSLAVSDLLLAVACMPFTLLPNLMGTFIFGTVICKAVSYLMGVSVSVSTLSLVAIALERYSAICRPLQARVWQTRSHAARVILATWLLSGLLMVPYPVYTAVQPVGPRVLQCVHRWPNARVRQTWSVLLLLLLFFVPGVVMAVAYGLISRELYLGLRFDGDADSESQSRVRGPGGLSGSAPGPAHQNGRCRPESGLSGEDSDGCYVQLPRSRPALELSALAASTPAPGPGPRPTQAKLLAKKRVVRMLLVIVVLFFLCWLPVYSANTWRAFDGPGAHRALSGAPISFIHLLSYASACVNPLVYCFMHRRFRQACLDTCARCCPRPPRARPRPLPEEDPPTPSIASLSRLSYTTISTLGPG
Protocol: CCK-8 binding was performed according to the description for the pancreatic method, with modifications by Saito et al., J. Neurochem., 37, 483 (1981).
The brains from male Hartley guinea pigs (300-500 g) were removed and placed in ice-cold 50 mM Tris HCl plus 7.58 g/L Trizma-7.4 [pH 7.4 at 25° C.]. The cerebral cortex was dissected and used as a receptor source and each gram of fresh guinea pig brain tissue was homogenized in 10 ml of Tris/Trizma buffer, pH 7.4, with a Brinkmann polytron PT-10. The homogenates were centrifuged at 42,000×g for 15 minutes, then the resulting pellets were resuspended in 200 volumes of binding assay buffer (10 mM N-2-hydroxy-ethyl-piperazine-N'-2-ethane-sulfonic acid (HEPES), pH 7.7 at 25° C., MgCl2, 1 mM ethylene glycol-bis-(β-amino-ethyl-ether-N,N'-tetraacetic acid (EGTA), 0.4% BSA and 0.25 mg/ml bacitracin, pH 6.5).
The remainder of the binding assay method was as described for the pancreatic method, Example 6, except that the reaction mixtures were incubated at 25° C. for 2 hours before filtration and the filters were washed with HEPES buffer.

[1] = tested on: CCK and gastrin receptors; assay: Binding to both CCK and gastrin receptors (summary statement); settings: summary in words
Protocol: Biological activity of virginiamycin M1 and the compounds of Formulae I, II, III and IV is determined by gastrin receptor binding, pancreas CCK receptor binding, brain CCK binding and microbial growth inhibition assays.

gram-positive bacteria = settings: cited from earlier work
[2] = C-terminal octapeptide vs CCK-33; cited from earlier work
gastric acid secretion = settings: cited from earlier work

Compound	IC50 (Brain CCK Receptor)	binding to CCK and gastrin receptors [1]	also measured
CC1=C\C=C\C(=O)Cc2nc(co2)C(=O)N2CCC=C2C(=O)O[C@H](C(C)C)[C@H](C)/C=C/C(=O)NC\C=C\1 [Compound III]	0.0133 µM	bind to both CCK and gastrin receptors	
CC1=C\C=C\[C@H](O)Cc2nc(co2)C(=O)N2CCC=C2C(=O)O[C@H](C(C)C)[C@H](C)/C=C/C(=O)NC\C=C\1 [Compound II]	0.0061 µM	bind to both CCK and gastrin receptors	
CC1=C\C=C\[C@@H](O)Cc2nc(co2)C(=O)N2CCC=C2C(=O)O[C@H](C(C)C)[C@H](C)/C=C/C(=O)NC\C=C\1 [Compound I]	0.0078 µM	bind to both CCK and gastrin receptors	
CC1=C\CCC(=O)Cc2nc(co2)C(=O)N2CCC=C2C(=O)O[C@H](C(C)C)[C@H](C)/C=C/C(=O)NC\C=C\1 [IV]	0.27 µM	bind to both CCK and gastrin receptors	
CC1=C\[C@@H](O)CC(=O)Cc2nc(co2)C(=O)N2CCC=C2C(=O)O[C@H](C(C)C)[C@H](C)/C=C/C(=O)NC\C=C\1 [Virginiamycin M1]	0.571 µM	bind to both CCK and gastrin receptors	antibacterial specificity (gram-positive bacteria): generally specific for gram-positive bacteria and prevent cell multiplication
C-terminal octapeptide: C-terminal octapeptide has the same efficacy as CCK-33			efficacy relative to CCK-33 [2]: same efficacy as CCK-33; potency relative to CCK-33 [2]: approximately ten
Gastrin-17: 17-amino acid form of gastrin, C-terminal fragment of the 34-amino acid form			potency relative to Gastrin-13 (gastric acid secretion; Gastrin-17 vs Gastrin-13): 2.5 times; potency relative to Gastrin-34 (gastric acid secretion; Gastrin-17 vs Gastrin-34): 5 times

Reference: US4772595A, “Synthetic virginiamycin M1 analogs” (Merck & Co., Inc., priority 1986, dated 1988)
